Reference: ChEMBL document CHEMBL5236561, “Rugonidines A-F, Diastereomeric 1,6-Dioxa-7,9-diazaspiro[4.5]dec-7-en-8-amines from the Leaves of Alchornea rugosa” (J Nat Prod, 2021)
Active and inactive are the calls of the source. The rule behind the calls is not given here.

Each compound was assayed on 3T3-L1 (assay: Induction of glucose uptake in mouse 3T3-L1 cells assessed as stimulation of in 2-NBDG uptake by measuring fluorescence intensity incubated for 1 hr in glucose free media hr by fluorescence microscopic analysis). Conditions: dose 5-20 µM.
Type: functional, cell-based
For CC(C)=CCNC1=NO[C@]2(CN1)Oc1cc(O)c3c(c1C2(C)C)O[C@H](c1ccc(O)c(O)c1)[C@@H](O[C@@H]1O[C@@H](C)[C@H](O)[C@@H](O)[C@H]1O)C3, the Activity was “Dose-Dependent Effect”. In the case of CC(C)=CCNC1=NO[C@@]2(CN1)Oc1cc(O)c3c(c1C2(C)C)O[C@H](c1ccc(O)c(O)c1)[C@@H](O[C@@H]1O[C@@H](C)[C@H](O)[C@@H](O)[C@H]1O)C3, the Activity is reported as “Dose-Dependent Effect”. For C[C@@H]1O[C@@H](O[C@H]2Cc3c(O)cc4c(c3O[C@@H]2c2ccc(O)c(O)c2)C(C)(C)[C@@]2(CNC(N)=NO2)O4)[C@H](O)[C@H](O)[C@H]1O, the Activity was “Dose-Dependent Effect”.

The compounds below were run on 3T3-L1 (assay: Induction of glucose uptake in mouse 3T3-L1 cells assessed as stimulation of in 2-NBDG uptake by measuring fluorescence intensity at 20 uM incubated for 1 hr in glucose free media hr by fluorescence microscopic analysis). Conditions: not given.
Type: functional, cell-based
In the case of CC(C)=CCNC1=NO[C@]2(CN1)Oc1cc(O)c3c(c1C2(C)C)O[C@H](c1ccc(O)c(O)c1)[C@@H](O[C@@H]1O[C@@H](C)[C@H](O)[C@@H](O)[C@H]1O)C3, the Activity is reported as “Active”. With CC(C)=CCNC1=NO[C@@]2(CN1)Oc1cc(O)c3c(c1C2(C)C)O[C@H](c1ccc(O)c(O)c1)[C@@H](O[C@@H]1O[C@@H](C)[C@H](O)[C@@H](O)[C@H]1O)C3 the Activity was “Active”. C[C@@H]1O[C@@H](O[C@H]2Cc3c(O)cc4c(c3O[C@@H]2c2ccc(O)c(O)c2)C(C)(C)[C@@]2(CNC(N)=NO2)O4)[C@H](O)[C@H](O)[C@H]1O was tested, and the Activity was “Active”.

Each compound was assayed on 3T3-L1 (assay: Induction of glucose uptake in mouse 3T3-L1 cells assessed as stimulation of in 2-NBDG uptake by measuring fluorescence intensity at 5 to 20 uM incubated for 1 hr in glucose free media hr by fluorescence microscopic analysis). Conditions: dose 5-20 µM.
Type: functional, cell-based
CC(C)=CCNC1=NO[C@]2(CN1)Oc1cc(O)c3c(c1C2(C)C)O[C@H](c1ccc(O)c(O)c1)[C@@H](O[C@@H]1O[C@@H](C)[C@H](O)[C@@H](O)[C@H]1O)C3 was tested, and the Activity was “Active”. In the case of CC(C)=CCNC1=NO[C@@]2(CN1)Oc1cc(O)c3c(c1C2(C)C)O[C@H](c1ccc(O)c(O)c1)[C@@H](O[C@@H]1O[C@@H](C)[C@H](O)[C@@H](O)[C@H]1O)C3, the Activity is reported as “Active”. C[C@@H]1O[C@@H](O[C@H]2Cc3c(O)cc4c(c3O[C@@H]2c2ccc(O)c(O)c2)C(C)(C)[C@@]2(CNC(N)=NO2)O4)[C@H](O)[C@H](O)[C@H]1O was tested, and the Activity was “Active”.
